Laboratory results from patent publication US11452703B2, “Methods and compositions for reducing adipocyte numbers” (Peregrine Ophthalmic PTE LTD., priority 2020, dated 2022).

Experiments:
[1] = system: intraconal fat deposit adipocytes; test: Short-term (7-day) adipocyte counts in intraconal fat after retrobulbar injection; format: in vivo; details: rat, single retrobulbar injection, 25 μg/eye (DCA 2000 μg/eye), day 7 post-injection
Description: Free latanoprost, EggPC-latanoprost, and POPC-latanoprost were each introduced by retrobulbar injection into the orbit of the rat eye to ascertain its effect on intraconal fat deposits. As a positive control, deoxycholic acid (DCA; KYBELLA®) was also injected. DCA has been approved by the United States Food and Drug Administration for reducing fat cells in the chin.
Six rats were injected in a single eye for each of treatment. The contralateral eye of each animal was not injected, thus serving as a negative control.
The number of adipocytes present in the intraconal fat deposit at day 7 post-injection was counted by computer analysis of histopathology images and compared to the number of adipocytes in the contralateral un-injected eye. The results are shown in FIGS. 4A-4F and in Table 2 below.

[2] = Intraocular pressure pre- and 3-week post retrobulbar injection; format: in vivo, Lewis rats (Rattus norvegicus); details: rat, pre-injection vs 3 weeks post-injection
Excerpt: (§1) Twenty-four male Lewis rats (Rattus norvegicus) at 8-10 weeks of age were used in the study. Their weights at the start of the study ranged from 250-300 g.
(§2) Six rats were assigned to each of four groups at least one day prior to drug dosing using a selection designed to achieve similar group mean body weights. Animals in Groups A-D were weighed prior to injection and weekly thereafter.
(§3) Rats were anesthetized and a 30-gauge needle was used to inject the drugs into the retrobulbar space of the right orbit of each animal. The left orbit served as a contra-lateral control. All rats awoke from anesthesia without complication.
Intraocular pressure (TOP) measurements were taken pre- and 3-week post-injection of each eye of all 24 rats.

[3] = system: intraconal orbital fat adipocytes; test: 21-day retrobulbar injection into orbital fat, histology and image analysis; format: in vivo, Lewis rats (Rattus norvegicus); set-up: Area of Retrobulbar Fat complex, Percentage Increase treated vs naïve control eyes / Mean Density of Adipocytes, Percent Increase treated vs naïve control eyes / Adipocyte Cell Counts, Percentage Decrease treated vs naïve control eyes: concentration or dose not given beside the values; details: rat; for Adipocyte Cell Counts, Treated Eyes Mean ± SEM / Area of Retrobulbar Fat complex, Treated Eyes Mean ± SEM / Mean Density of Adipocytes, Treated Eyes Mean ± SEM: 25 μg/eye (DCA 2000 μg/eye), day 21, n = 6; for Adipocyte Cell Counts, Percentage Decrease treated vs naïve control eyes / Area of Retrobulbar Fat complex, Percentage Increase treated vs naïve control eyes / Mean Density of Adipocytes, Percent Increase treated vs naïve control eyes: day 21
Excerpt: Free latanoprost, EggPC-latanoprost, POPC-latanoprost, and DCA were each introduced by retrobulbar injection into the orbit of the rat eye to ascertain its effect on intraconal fat deposits over a three-week period.
as §1, §2, §3
On Day 21, 3 weeks after injection, rats were euthanized by cardiac perfusion with 4% paraformaldehyde. After perfusion, each rat was decapitated and the head was placed in a 10% formalin solution for 2 days. Each orbit was carefully exenterated subperiosteally with a scalpel and placed back in 10% formalin solution for 1 day (6 orbits from 3 animals per group) and the remaining orbits were placed back in a 10% formalin solution for 2 weeks. Exenterated orbits were embedded in paraffin and cut into 5 μm sections. Sections centered around the intraconal fat and optic nerve were stained with hematoxylin-eosin for histologic examination by a trained ocular pathologist and a second observer in a blinded fashion.
Sections were examined histologically for optic nerve injury, atrophy of orbital fat, adipocyte density, and cytotoxicity evidenced by, e.g., adipocytolysis, blood vessel injury and repair, neutrophilic inflammation, lysis of locally present neutrophils, hemorrhage, lipid lake formation, and neovascularization.
The intraconal fat of the orbital sections were examined under light microscopy and images scanned for further analysis. The areas of intraconal orbital fat were cropped and the adipocytes counted using ImageJ software (Rasband W.S., US National Institutes of Health, Bethesda, Md.) to determine adipocyte density using a previously described method. See Park et al., 2011, Jpn. J. Ophthalmol. 55:22-27. The density of adipocytes in the intraconal orbital fat area was calculated and compared between groups via a 2-tailed Student t test.
Adipocyte size heterogeneity was analyzed in the cropped images of the intraconal fat light using a maximally stable extremal regions-based segmentation algorithm implemented in MATLAB (Mathworks, Natick, Mass.). A maximally stable extremal region algorithm entitled VL_FEAT was used to find extremal regions with parameters of delta=1, maximum variation=0.2, minimum diversity=0.5. Maximally stable extremal region-determined regions with sizes less than 10 pixels or eccentricity larger than 0.9 was discarded as false positives. The mean segmented adipocyte size for each image was calculated and the groups were compared using Student t test.

C/EBPα = test: Quantitative real-time PCR of C/EBPα mRNA in adipocytes; format: cell-based; details: adipocytes 9 or 15 days post differentiation, vs vehicle control
Description: (§4) Adipose-derived mesenchymal stem cells, i.e., pre-adipocytes, were cultured and differentiated into adipocytes following established protocols. Briefly, adipose derived mesenchymal stem cells were obtained from ATCC (PCS500011™, Manassas, Va.) and cultured in Mesenchymal Stem Cell Basal Medium (ATCC® PCS500030™) with Growth Kit (ATCC® PCS500040™) at 37° C. in 5% CO2. To induce differentiation, ADMSC cultures were grown to 70% to 80% confluence and the medium replaced by adipogenic differentiation medium (StemPro® Adipogenesis Differentiation Kit; Gibco Life Technologies™, USA). The medium was changed twice weekly.
(§5) Gene expression in the treated and untreated adipocytes was examined by quantitative real-time PCR analysis. Total RNA from adipocytes was isolated using the RNAzol® RT reagent (Molecular Research Center, Inc., Cincinnati, Ohio, USA) and reverse-transcribed using the QuantiTect reverse transcription kit (Qiagen Inc., Chatsworth, Calif., USA) according to the supplier's instructions. Messenger RNA expression of adipogenesis-promoting genes C/EBPα, PPARγ, and LPL were determined by quantitative analysis of real-time PCR (RT-PCR) using FastStart Universal SYBR Green Master Mix (Roche Applied Science) in a LightCycler® 480 Real-Time PCR System (Roche Applied Science, Germany). […]

PPARγ = test: Quantitative real-time PCR of PPARγ mRNA in adipocytes; format: cell-based; details: adipocytes 9 or 15 days post differentiation, vs vehicle control
Description: as §4, §5

inguinal fat pad = test: In vivo fat reduction by direct injection into inguinal fat pads; details: mice, single injection 100 μL containing 100 μg latanoprost, 7 days post-injection
Description: The ability of liposome-encapsulated latanoprost to reduce fat deposits in vivo was tested by direct injection into inguinal fat pads of mice.
Each of three animals were injected into one inguinal fat pad with 100 μL of vehicle, 100 μL containing 100 μg latanoprost, 100 μL of EggPC-latanoprost containing 100 μg latanoprost, or 100 μL of POPC-latanoprost containing 100 μg latanoprost. Seven days later, the mice were sacrificed and the weights of both the injected inguinal fat pad and the contralateral un-injected fat pad were measured.

LPL = test: Quantitative real-time PCR of LPL mRNA in adipocytes; format: cell-based; details: adipocytes 9 or 15 days post differentiation, vs vehicle control
Description: as §4, §5

| Intraocular pressure (IOP) in injected eyes [2] | SMILES | Adipocyte cell count reduction (percent reduction in total adipocyte number in intraconal fat deposit vs contralateral un-injected eye) [1] | Adipocyte Cell Counts, Treated Eyes Mean ± SEM ([3]; retrobulbar injection) | Area of Retrobulbar Fat complex, Treated Eyes Mean ± SEM ([3]; retrobulbar injection) | Mean Density of Adipocytes, Treated Eyes Mean ± SEM ([3]; retrobulbar injection) | Adipocyte Cell Counts, Percentage Decrease treated vs naïve control eyes ([3]; retrobulbar injection) | Area of Retrobulbar Fat complex, Percentage Increase treated vs naïve control eyes ([3]; retrobulbar injection) | Mean Density of Adipocytes, Percent Increase treated vs naïve control eyes ([3]; retrobulbar injection) | mRNA expression of adipogenesis-promoting gene C/EBPα (C/EBPα) | mRNA expression of adipogenesis-promoting gene PPARγ (PPARγ) | weight reduction of injected inguinal fat pad as compared to un-injected contralateral fat pad (inguinal fat pad) | mRNA expression of adipogenesis-promoting gene LPL (LPL) | heterogeneity among adipocytes in the intraconal space as compared to naïve contra-lateral control orbits ([3]; orbital injection, day 21, computer-aided morphological analysis) | change in the area of the retrobulbar fat complex after injection (significance) ([3]; retrobulbar injection, day 21, quantitative image analysis) |
| --- | --- | --- | --- | --- | --- | --- | --- | --- | --- | --- | --- | --- | --- | --- |
| significant increase | C[C@H](CCC(=O)O)[C@H]1CC[C@H]2[C@@H]3CC[C@@H]4C[C@H](O)CC[C@]4(C)[C@H]3C[C@H](O)[C@]12C [DCA, deoxycholic acid] | 39.04% | 179 ± 47 | 0.167 ± 0.093 mm^2 | 7606.21 ± 754.39 cells/mm^3 | 37% | 208% | 35% | – | – | – | – | – | – |
| remained stable | CC(C)OC(=O)CCC/C=C\C[C@@H]1[C@@H](CC[C@@H](O)CCc2ccccc2)[C@H](O)C[C@@H]1O [latanoprost] | 56.52% | 108 ± 52 | 0.131 ± 0.089 mm^2 | 8574.68 ± 1456.73 cells/mm^3 | 61% | 283% | 58% | suppressed expression | suppressed expression | did not result in any weight reduction | suppressed expression | more heterogeneity | significant increases |
